Test results from BigSolDB 2.1.

C[C@]12C=CC(=O)C=C1CC[C@@H]1[C@@H]2[C@@H](O)C[C@@]2(C)[C@H]1CC[C@]2(O)C(=O)CO
solubility (mole fraction)
Settings	in DMF	in NMP	in acetonitrile	in n-dodecane	in n-hexadecane	in n-nonanol	in n-octanol	in n-pentanol	in sec-butanol	in water
293.2 K	0.00818	0.00465	0.00219	1.44e-05	2.15e-05	0.000507	0.000316	0.000283	0.000248	1.05e-05
298.2 K	0.00869	0.00525	0.00236	1.64e-05	2.35e-05	0.000643	0.000419	0.000358	0.000294	1.1e-05
303.2 K	0.00943	0.0061	0.00255	1.87e-05	2.61e-05	0.000833	0.000568	0.000449	0.000362	1.25e-05
308.2 K	0.0101	0.00688	0.0028	2.16e-05	3.01e-05	0.000999	0.000712	0.000559	0.000444	1.4e-05
313.2 K	0.0108	0.00784	0.00305	2.45e-05	3.4e-05	0.00126	0.000913	0.000699	0.00053	1.6e-05
318.2 K	0.0116	0.00881	0.00334	2.79e-05	3.88e-05	0.00151	0.00114	0.000881	0.000628	1.8e-05
323.2 K	0.0125	0.00998	0.00364	3.28e-05	4.5e-05	0.00179	0.00141	0.0011	0.00075	2e-05
328.2 K	0.0141	0.0114	0.00407	3.82e-05	5.41e-05	0.00215	0.0018	0.00139	0.000905	2.6e-05
